The results in this text go back to ChEMBL document CHEMBL5532639, “Heterocyclic pyrimidine derivatives as promising antibacterial agents” (Eur J Med Chem, 2023).

In assay [1] the test system is Staphylococcus aureus. Briefly: Antibacterial activity against Staphylococcus aureus assessed as reduction in microbial growth by measuring zone of inhibition. In kind it is functional.
Assay [2] relates to Escherichia coli. The assay can be described thus: Antibacterial activity against Escherichia coli assessed as reduction in microbial growth by measuring zone of inhibition. In kind it is functional.
Assay [3] deals with Pseudomonas aeruginosa. Briefly: Antibacterial activity against Pseudomonas aeruginosa assessed as reduction in microbial growth by measuring zone of inhibition. In kind it is functional.
The subject of assay [4] is Bacillus subtilis. Briefly: Antibacterial activity against Bacillus subtilis assessed as reduction in microbial growth by measuring zone of inhibition. In kind it is functional.
In assay [5] the test system is Staphylococcus aureus. The assay can be described thus: Antibacterial activity against Staphylococcus aureus ATCC 3750 assessed as reduction in bacterial growth. In kind it is functional.
Assay [6] deals with Bacillus subtilis. The assay can be described thus: Antibacterial activity against Bacillus subtilis 6633 assessed as reduction in bacterial growth. In kind it is functional.
For another assay, the system named is Salmonella typhimurium. The assay can be described thus: Antibacterial activity against Salmonella typhimurium DT104 assessed as reduction in bacterial growth. In kind it is functional, Salmonella enterica subsp. enterica serovar Typhimurium. Conditions: Salmonella enterica.
Assay [7] has as its system Escherichia coli. The assay can be described thus: Antibacterial activity against Escherichia coli ATCC 25922 assessed as bacterial growth inhibition. It is filed as functional.
Assay [8] concerns Escherichia coli. The assay can be described thus: Antibacterial activity against Escherichia coli assessed as inhibition of microbial growth by broth micro-dilution method. In kind it is functional. On the technique in general: In broth dilution the organism is exposed to a series of concentrations in liquid medium.
For a further assay, the system named is Streptococcus pyogenes. Briefly: Antibacterial activity against Streptococcus pyogenes assessed as inhibition of microbial growth by broth micro-dilution method. It is filed as functional.
For assay [9], the system named is Staphylococcus aureus. The assay can be described thus: Antibacterial activity against Staphylococcus aureus assessed as inhibition of microbial growth by broth micro-dilution method. It is filed as functional.
The test system of assay [10] is Pseudomonas aeruginosa. The assay can be described thus: Antibacterial activity against Pseudomonas aeruginosa assessed as inhibition of microbial growth by broth micro-dilution method. It is filed as functional.
A further assay relates to Sarcina. The assay can be described thus: Antibacterial activity against Sarcina assessed as zone of inhibition at 20 mg/ml. Conditions: read-out: IZ. It is filed as functional.
Assay [11] concerns Staphylococcus aureus. Briefly: Antibacterial activity against Staphylococcus aureus assessed as zone of inhibition at 20 mg/ml. In kind it is functional. The conditions noted are these: read-out: IZ.
The subject of assay [12] is Escherichia coli. The assay can be described thus: Antibacterial activity against Escherichia coli assessed as zone of inhibition at 20 mg/ml. It is filed as functional. The conditions noted are these: read-out: IZ.
For assay [13], the system named is Bacillus subtilis. The assay can be described thus: Antibacterial activity against Bacillus subtilis assessed as zone of inhibition at 20 mg/ml. In kind it is functional. The conditions noted are these: read-out: IZ.
The subject of a further assay is Serratia marcescens. The assay can be described thus: Antibacterial activity against Serratia marcescens assessed as zone of inhibition at 20 microg/ml. It is filed as functional. Conditions: read-out: IZ.
Assay [14] concerns Staphylococcus aureus. Briefly: microbe, parasite or virus in culture. The conditions noted are these: ATCC 25923, 24 h.
Description: Antibacterial activity against Staphylococcus aureus ATCC 25923 assessed as reduction in bacterial growth measured after 24 hrs by Mueller-Hinton broth assay
Assay [15] deals with Bacillus subtilis. The assay can be described thus: Antibacterial activity against Bacillus subtilis ATCC 465 assessed as reduction in bacterial growth measured after 24 hrs by Mueller-Hinton broth assay. In kind it is functional.
Assay [16] deals with Bacillus subtilis. The assay can be described thus: Antimicrobial activity against Bacillus subtilis RCMB 010069 assessed as bacterial growth inhibition by measuring zone of inhibition at 50 ug/ml by agar cup diffusion assay. It is filed as functional. Conditions: read-out: IZ.
Assay [17] has as its system Escherichia coli. The assay can be described thus: Antimicrobial activity against Escherichia coli RCMB 010052 assessed as bacterial growth inhibition by measuring zone of inhibition at 50 ug/ml by agar cup diffusion assay. It is filed as functional. The conditions noted are these: read-out: IZ.
The subject of a further assay is Streptococcus pneumoniae. Briefly: Antimicrobial activity against Streptococcus […] assessed as bacterial growth inhibition by measuring zone of inhibition at 50 ug/ml by agar cup diffusion assay. The conditions noted are these: read-out: IZ. In kind it is functional.

Structures are written as SMILES. Converted amounts (≈) assume the structure as drawn.

On to `O=[N+]([O-])c1ccc(Nc2nc(SCc3ccccc3)ncc2I)cc1`, for which the “inhibition zone (IZ)” value came out at 16 mm in the assay with Staphylococcus aureus [1], 5 mm with Escherichia coli [2], 10 mm in the assay with Pseudomonas aeruginosa [3] and 14 mm in the assay on Bacillus subtilis [4].
Consider `Cc1nc2scc(-c3ccco3)c2c(=O)n1NC(=O)c1ccc(Cl)cc1Cl`, for which the MIC in the assay on Staphylococcus aureus [5] was 5 µg/mL (≈ 11.9 µM); with Bacillus subtilis [6] it was 4 µg/mL (≈ 9.52 µM); in the assay on Salmonella typhimurium it was 6 µg/mL (≈ 14.3 µM); in the assay with Escherichia coli [7], 6 µg/mL (≈ 14.3 µM).
In the case of `Nc1ncccc1/C=N/Nc1nc(SCc2ccccc2)ncc1I`, the “inhibition zone (IZ)” value with Staphylococcus aureus [1] is on record as 18 mm; in the assay with Escherichia coli [2], 7 mm; in the assay on Pseudomonas aeruginosa [3], 18 mm; in the assay on Bacillus subtilis [4], 17 mm.
`COc1ccc(-c2cc(-c3ccc(Oc4ccccc4)cc3)nc(SCC(=O)Nc3nc4ccc(OC)cc4s3)n2)cc1`: the MIC in the assay on Escherichia coli [8] was found to be 25 µg/mL; in the assay with Streptococcus pyogenes, 50 µg/mL; with Staphylococcus aureus [9], 50 µg/mL; with Pseudomonas aeruginosa [10], 25 µg/mL.
With `CSc1c(C#N)c(N)nc2c(/N=N/c3ccc(S(=O)(=O)Nc4ncccn4)cc3)c(=O)[nH]n12`, the zone of inhibition at 20000 µg/mL stood at 12 mm in the assay with Sarcina, 9 mm in the assay with Staphylococcus aureus [11], 15 mm in the assay with Escherichia coli [12] and 9 mm in the assay on Bacillus subtilis [13]. The zone of inhibition at 20 µg/mL in the assay on Serratia marcescens is 15 mm.
Consider `CN[C@@H]1[C@H](O[C@H]2[C@H](O[C@H]3[C@H](O)[C@@H](O)[C@H](N=C(N)N)[C@@H](O)[C@@H]3N=C(N)N)O[C@@H](C)[C@]2(O)C=O)O[C@@H](CO)[C@H](O)[C@H]1O` [STREPTOMYCIN], for which the zone of inhibition at 20000 µg/mL with Sarcina, in the assay on Staphylococcus aureus [11], with Escherichia coli [12] and with Bacillus subtilis [13] was 18 mm in each case. Further, the zone of inhibition at 20 µg/mL in the assay with Serratia marcescens was found to be 18 mm.
Regarding `N#Cc1nc2[nH]c(=O)[nH]c(=O)c2c(-c2ccccc2)c1N`, the figures for the MIC in the assay with Staphylococcus aureus [14] and in the assay on Bacillus subtilis [15] were 8 µg/mL (≈ 28.6 µM) and 2 µg/mL (≈ 7.16 µM), respectively.
For `COc1ccc(/C=N/Nc2nc(SCc3ccccc3)ncc2I)cc1O`, the “inhibition zone (IZ)” value in the assay with Staphylococcus aureus [1] is listed as 12 mm; with Escherichia coli [2] it was 4 mm; with Pseudomonas aeruginosa [3], 19 mm; in the assay on Bacillus subtilis [4], 13 mm.
For the compound `COc1ccc(Nc2c(C#N)c(N)nc3c(/N=N/c4ccc(S(=O)(=O)Nc5ncccn5)cc4)c(=O)[nH]n23)cc1`, the zone of inhibition at 20000 µg/mL was determined as 15 mm in the assay with Sarcina, 12 mm in the assay with Staphylococcus aureus [11], 15 mm in the assay with Escherichia coli [12] and 9 mm in the assay on Bacillus subtilis [13]. For the same compound, in the assay on Serratia marcescens, the zone of inhibition at 20 µg/mL came to 15 mm.
With `Cc1cnc(NS(=O)(=O)c2ccc(/N=N/c3c(=O)[nH]n4c(NN)c(C#N)c(N)nc34)cc2)nc1`, the zone of inhibition at 20000 µg/mL amounted to 12 mm in the assay with Sarcina, 9 mm in the assay with Staphylococcus aureus [11], 12 mm in the assay on Escherichia coli [12] and 9 mm in the assay with Bacillus subtilis [13]. Also, the zone of inhibition at 20 µg/mL in the assay with Serratia marcescens worked out at 15 mm.
Turning to `O=C1OC(c2ccc(C(=O)O)cc2)N=C1/C=C/c1ccc(C(=O)c2ccco2)cc1` (stereo not given), the zone of inhibition at 50 µg/mL with Bacillus subtilis [16] stood at 21.2 mm; in the assay with Escherichia coli [17] it was 16.7 mm; with Streptococcus pneumoniae, 19.3 mm.
Consider `Oc1ccccc1/C=N/Nc1nc(SCc2ccccc2)ncc1I`, for which the “inhibition zone (IZ)” value in the assay with Staphylococcus aureus [1] was determined as 15 mm; with Escherichia coli [2], 7 mm; with Pseudomonas aeruginosa [3] it was 18 mm; in the assay on Bacillus subtilis [4], 13 mm.
On to `O=C1OC(c2ccc(C(=O)O)cc2)N=C1/C=C/c1ccc(C(=O)c2cccs2)cc1` (stereo not given), for which the zone of inhibition at 50 µg/mL was determined as 22.3 mm in the assay on Bacillus subtilis [16], 17.9 mm in the assay with Escherichia coli [17] and 18.6 mm with Streptococcus pneumoniae.
Turning to `Clc1ccc(/C=N/Nc2nc(SCc3ccccc3)ncc2I)cc1`, the “inhibition zone (IZ)” value came to 10 mm in the assay with Staphylococcus aureus [1], 8 mm with Escherichia coli [2], 18 mm in the assay on Pseudomonas aeruginosa [3] and 10 mm in the assay on Bacillus subtilis [4].
For the compound `Cc1nc2scc(-c3ccco3)c2c(=O)n1NC(=O)c1ccc(F)cc1F`, the MIC worked out at 4 µg/mL (≈ 10.3 µM) with Staphylococcus aureus [5], 5 µg/mL (≈ 12.9 µM) in the assay with Bacillus subtilis [6], 5 µg/mL (≈ 12.9 µM) in the assay with Salmonella typhimurium and 4 µg/mL (≈ 10.3 µM) in the assay with Escherichia coli [7].
In the case of `Cc1ccc(Nc2c(C#N)c(N)nc3c(/N=N/c4ccc(S(=O)(=O)Nc5ncc(C)cn5)cc4)c(=O)[nH]n23)cc1`, the zone of inhibition at 20000 µg/mL is 15 mm with Sarcina, 12 mm in the assay with Staphylococcus aureus [11], 12 mm with Escherichia coli [12] and 9 mm in the assay with Bacillus subtilis [13]. Besides, in the assay on Serratia marcescens, the zone of inhibition at 20 µg/mL came out at 15 mm.
